Here are results for three compounds from patent US11629171B2, “Beta-hairpin peptidomimetics” (POLYPHOR AG, priority 2017, dated 2023).

Converted amounts (≈) assume the structure as drawn. Where a SMILES comes first, the peptide text is derived from it. Bridges are numbered along the chain shown (N, C = ends). Roman numbers before positions name the chains, in order. [ ]: non-standard residue; d: D form. The star is where a group is joined. Thr(ol) = C[C@@H](O)[C@H](N)CO; Tle = CC(C)(C)[C@H](N)C(=O)O; Hiv = CC(C)[C@H](O)C(=O)O; dDab = NCC[C@@H](N)C(=O)O; NHCH(CH2OH)2 = OCC(CO)N*; Orn = NCCC[C@H](N)C(=O)O; Dab = NCC[C@H](N)C(=O)O; Dap = NC[C@H](N)C(=O)O

Common to all, as to type: cell-based
The subject of data set [1] is Acinetobacter baumannii DSM 30008. The note with it: DSM 30008. In a few lines: (§1)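 MIC in μg/mL, read as absence of visible growth after 18-20 h incubation at 35° C, by standard CLSI microdilution. Peptides tested in two-fold serial dilution in cation-adjusted MH-II broth containing 0.002% (final) Polysorbate 80, against roughly 10^6 CFU/mL inocula.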
The test system of data set [2] is Klebsiella pneumoniae SSI #3010. The note with it: SSI #3010. In a few lines:
as §1

The subject of data set [3] is Enterobacter cloacae 848840. The note with it: 848840. In a few lines: as §1
Data set [4] concerns Acinetobacter baumannii 872842. The note with it: 872842. In a few lines: as §1
The test system of data set [5] is Pseudomonas aeruginosa ATCC 27853. The note with it: ATCC 27853. In a few lines: as §1
The test system of another data set is Escherichia coli 926415. The note with it: 926415. In a few lines:
as §1

In data set [6] the test system is Escherichia coli ATCC 25922. The note with it: ATCC 25922. In a few lines: as §1
Data set [7] deals with Klebsiella pneumoniae 968733. The note with it: 968733. In a few lines: as §1
Data set [8] relates to human red blood cells (hRBC). The experiment in a line: Hemolysis. The note with it: red cells of human, 1 h, 200. In a few lines: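 Hemoglobin release from PBS-washed hRBC at 20% (v/v), incubated 1 h at 37° C with peptides at 200 μg/mL, is measured at 540 nm. Values are blank corrected and given as a fraction of Triton X-100 lysis × 100%.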

In general, MIC refers to the lowest concentration that inhibits growth of the organism. Lower therefore signals inhibition by little substance.

`CC(C)C[C@@H]1NC(=O)[C@@H](CC(C)C)NC(=O)[C@H](CCN)NC(=O)[C@@H](NC(=O)[C@H](CN)NC(=O)[C@@H](NC(=O)[C@H](CCN)NC(=O)CC[C@@H]2NC(=O)CNC(=O)[C@H](CCCN)NC(=O)[C@H](CCN)NC(=O)[C@H](Cc3ccc(O)cc3)NC(=O)[C@@H](NC(=O)[C@@H](O)C(C)C)CSSC[C@@H](C(=O)NC(CO)CO)NC(=O)[C@H](C(C)(C)C)NC(=O)[C@H](CO)NC(=O)[C@H](Cc3c[nH]c4ccccc34)NC2=O)[C@@H](C)O)CCNC(=O)[C@H]([C@@H](C)O)NC(=O)[C@H](CCN)NC(=O)[C@H](CCN)NC1=O` [Ex. 173] (I: H-[Hiv]CY[Dab][Orn]GEWS[Tle]C-{NHCH(CH2OH)2} / II: [Dab]T[Dap][Dab][Dab][dL]L[Dab][Dab]T; disulfide I:2-I:11; amide I:7-II:N; lactam II:4-II:C): the MIC was found to be 0.0625 µg/mL (≈ 0.0267 µM) in [1]; 0.125 µg/mL (≈ 0.0534 µM) in data set [2]; 4 µg/mL (≈ 1.71 µM) in data set [3]; 0.125 µg/mL (≈ 0.0534 µM) in [4]; 0.5 µg/mL (≈ 0.213 µM) in [5]; 0.25 µg/mL (≈ 0.107 µM) with Escherichia coli 926415. Further, the figures for the MIC in data set [6] and in [7] were 0.125 µg/mL (≈ 0.0534 µM) and 2 µg/mL (≈ 0.854 µM), respectively. For the same compound, the “Hemolysis at 200 μg/mL” value in data set [8] is recorded as less than 1%.

As for `CC(=O)N[C@H](C(=O)N[C@H]1CSSC[C@@H](C(=O)N[C@H](C(N)=O)[C@@H](C)O)NC(=O)[C@H](C(C)(C)C)NC(=O)[C@H](CO)NC(=O)[C@H](Cc2c[nH]c3ccccc23)NC(=O)[C@H](CCN)NC(=O)[C@@H](CCN)NC(=O)[C@H](CCC(=O)N[C@@H](CCN)C(=O)N[C@H](C(=O)N[C@@H](CN)C(=O)N[C@H]2CCNC(=O)[C@H]([C@@H](C)O)NC(=O)[C@H](CCN)NC(=O)[C@H](CCN)NC(=O)[C@H]([C@@H](C)O)NC(=O)[C@@H](CC(C)C)NC(=O)[C@H](CCN)NC2=O)[C@@H](C)O)NC(=O)[C@H]([C@@H](C)O)NC(=O)[C@H](Cc2ccc(O)cc2)NC1=O)C(C)C` [Ex. 263] (I: Ac-VCYTE[dDab][Dab]WS[Tle]CT-NH2 / II: [Dab]T[Dap][Dab][Dab][dL]T[Dab][Dab]T; disulfide I:2-I:11; amide I:5-II:N; lactam II:4-II:C), the MIC came out at 0.03125 µg/mL (≈ 0.0129 µM) in data set [1]; 0.03125 µg/mL (≈ 0.0129 µM) in data set [2]; 0.125 µg/mL (≈ 0.0515 µM) in [3]; 0.0625 µg/mL (≈ 0.0257 µM) in data set [4]; 0.125 µg/mL (≈ 0.0515 µM) in data set [5]; 0.125 µg/mL (≈ 0.0515 µM) against Escherichia coli 926415. The MIC came to 0.03125 µg/mL (≈ 0.0129 µM) in data set [6] and 0.25 µg/mL (≈ 0.103 µM) in data set [7]. Also, the “Hemolysis at 200 μg/mL” value in data set [8] was 1%.

In the case of `CC(C)C[C@@H]1NC(=O)[C@@H](CC(C)C)NC(=O)[C@H](CCN)NC(=O)[C@@H](NC(=O)[C@H](CCN)NC(=O)[C@@H](NC(=O)[C@H](CCN)NC(=O)CC[C@@H]2NC(=O)[C@@H](NC(=O)[C@H](Cc3ccc(O)cc3)NC(=O)[C@H](CCC(=O)O)NC(=O)[C@@H](O)C(C)C)CSSC[C@@H](C(=O)N[C@H](C(=O)N[C@@H](CCCCN)C(=O)N[C@H](CO)[C@@H](C)O)C(C)(C)C)NC(=O)[C@H](Cc3c[nH]c4ccccc34)NC(=O)[C@H]([C@@H](C)O)NC(=O)[C@@H](CCN)NC2=O)[C@@H](C)O)CCNC(=O)[C@H]([C@@H](C)O)NC(=O)[C@H](CCN)NC(=O)[C@H](CCN)NC1=O` [Ex. 189] (I: H-[Hiv]EYCE[dDab]TWC[Tle]K[Thr(ol)] / II: [Dab]T[Dab][Dab][Dab][dL]L[Dab][Dab]T; disulfide I:4-I:9; amide I:5-II:N; lactam II:4-II:C), the MIC worked out at 0.125 µg/mL (≈ 0.0506 µM) in data set [1]; 0.125 µg/mL (≈ 0.0506 µM) in data set [2]; 0.25 µg/mL (≈ 0.101 µM) in [3]; 0.5 µg/mL (≈ 0.202 µM) in data set [4]; 0.25 µg/mL (≈ 0.101 µM) in data set [5]; 1 µg/mL (≈ 0.405 µM) in the data set on Escherichia coli 926415. The MIC stood at 0.125 µg/mL (≈ 0.0506 µM) in data set [6] and 4 µg/mL (≈ 1.62 µM) in [7]. In addition, the “Hemolysis at 200 μg/mL” value in [8] is less than 1%.
